Results published in patent US20080255134A1 (Artesian Therapeutics, Inc., priority 2004, published 2008).
Where two headings read alike, the source gives them in different places.

Key:
[1] = target: T1, human recombinant beta-1 receptors (Homo sapiens, UniProt P08588); test: β1-receptor radioligand binding, [125I] iodocyanopindolol, CHO-REX16 cells; conditions: at 100 nM
T1 construct: expressed in transfected cells; host or cells: CHO-REX16 cells
Protocol: […] receptor binding was measured in human recombinant beta-1 receptors expressed in CHO-REX16 cells, using [^125I] (-) iodocyanopindolol (2000 Ci/mmol) as the radioligand, as described in Kalaria et al., J. Neurochem. 53: 1772-81 (1998), and Minneman et al., Mol. Pharmacol. 16: 34-46 (1979).

[2] = target: T2, human recombinant beta-2 receptors (Homo sapiens, UniProt P07550); test: β2-receptor radioligand binding, [125I] iodocyanopindolol, CHO-WT21 cells; conditions: at 100 nM
T2 construct: expressed in transfected cells; host or cells: CHO-WT21 cells
Protocol: (§1) Non-selective β-adrenergic and β1-adrenergic radioligand binding assays were performed using rat cortical membranes; β2-adrenergic receptor assays were performed using membranes isolated from CHO cells expressing human, recombinant b2-adrenergic receptor; non-selective α1-adrenergic receptor assays were performed using rat forebrain membranes; and PDE3 binding assays were performed on human platelets. Values in percent illustrate percent inhibition at 1000 nM concentration.

PDE3 = target: T3, PDE3 (Homo sapiens, UniProt Q14432); test: In vitro assay for cAMP PDE-3 inhibitory activity; assay type: biochemical; conditions: human platelet cyclic AMP phosphodiesterase, bound stated
T3 construct: from tissue; host or cells: human platelets
Protocol: Human platelet cyclic AMP phosphodiesterase was prepared according to the method of Alvarez et al., Mol. Pharmacol. 29: 554 (1986). The PDE incubation medium contained 10 mM Tris-HCl buffer, pH 7.7, 10 mM MgSO4, and 1 μM […] (0.2 μCi) in a total volume of 1.0 mL. Test compounds were dissolved in DMSO immediately prior to addition to the incubation medium, and the resulting mixture was allowed to stand for 10 minutes prior to the addition of enzyme. Following the addition of PDE, the contents were mixed and incubated for 10 minutes at 30° C. Three assays each were performed for each of five test compound concentrations, the mean of the determinations (n=3) at each concentration was plotted, and IC50 values were determined graphically.
as §1, with “The ability of Compounds 25 and 8c to inhibit PDE3 and β-adrenergic receptor activity was examined both in vitro and in vivo. […] Non-selective” for “Non-selective”

[3] = read-out: PDE IC50 inhibition values

T2 sequence (P07550 whole entry): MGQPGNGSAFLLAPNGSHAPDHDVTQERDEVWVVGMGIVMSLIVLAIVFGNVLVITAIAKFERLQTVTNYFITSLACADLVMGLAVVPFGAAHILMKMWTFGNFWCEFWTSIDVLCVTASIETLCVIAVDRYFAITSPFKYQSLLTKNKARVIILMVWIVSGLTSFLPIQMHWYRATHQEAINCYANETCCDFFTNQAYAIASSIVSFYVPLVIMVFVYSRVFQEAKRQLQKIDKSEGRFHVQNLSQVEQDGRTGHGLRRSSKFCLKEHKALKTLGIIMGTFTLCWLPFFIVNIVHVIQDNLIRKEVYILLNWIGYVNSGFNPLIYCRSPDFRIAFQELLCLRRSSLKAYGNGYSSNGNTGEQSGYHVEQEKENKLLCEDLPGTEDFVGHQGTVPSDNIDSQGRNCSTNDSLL
T1 sequence (P08588 whole entry): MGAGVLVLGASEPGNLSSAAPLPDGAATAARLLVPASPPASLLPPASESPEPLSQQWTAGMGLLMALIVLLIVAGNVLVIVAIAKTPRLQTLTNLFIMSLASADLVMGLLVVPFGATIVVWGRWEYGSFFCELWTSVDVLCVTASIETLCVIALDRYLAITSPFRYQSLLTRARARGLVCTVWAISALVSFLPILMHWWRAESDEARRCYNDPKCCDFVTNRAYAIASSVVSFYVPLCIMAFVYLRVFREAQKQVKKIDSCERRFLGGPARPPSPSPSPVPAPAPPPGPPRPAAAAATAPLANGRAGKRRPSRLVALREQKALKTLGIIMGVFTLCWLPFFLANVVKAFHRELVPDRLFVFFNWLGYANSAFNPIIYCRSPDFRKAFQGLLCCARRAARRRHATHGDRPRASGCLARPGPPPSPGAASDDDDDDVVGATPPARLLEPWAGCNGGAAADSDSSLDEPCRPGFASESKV
T3 sequence (Q14432 whole entry): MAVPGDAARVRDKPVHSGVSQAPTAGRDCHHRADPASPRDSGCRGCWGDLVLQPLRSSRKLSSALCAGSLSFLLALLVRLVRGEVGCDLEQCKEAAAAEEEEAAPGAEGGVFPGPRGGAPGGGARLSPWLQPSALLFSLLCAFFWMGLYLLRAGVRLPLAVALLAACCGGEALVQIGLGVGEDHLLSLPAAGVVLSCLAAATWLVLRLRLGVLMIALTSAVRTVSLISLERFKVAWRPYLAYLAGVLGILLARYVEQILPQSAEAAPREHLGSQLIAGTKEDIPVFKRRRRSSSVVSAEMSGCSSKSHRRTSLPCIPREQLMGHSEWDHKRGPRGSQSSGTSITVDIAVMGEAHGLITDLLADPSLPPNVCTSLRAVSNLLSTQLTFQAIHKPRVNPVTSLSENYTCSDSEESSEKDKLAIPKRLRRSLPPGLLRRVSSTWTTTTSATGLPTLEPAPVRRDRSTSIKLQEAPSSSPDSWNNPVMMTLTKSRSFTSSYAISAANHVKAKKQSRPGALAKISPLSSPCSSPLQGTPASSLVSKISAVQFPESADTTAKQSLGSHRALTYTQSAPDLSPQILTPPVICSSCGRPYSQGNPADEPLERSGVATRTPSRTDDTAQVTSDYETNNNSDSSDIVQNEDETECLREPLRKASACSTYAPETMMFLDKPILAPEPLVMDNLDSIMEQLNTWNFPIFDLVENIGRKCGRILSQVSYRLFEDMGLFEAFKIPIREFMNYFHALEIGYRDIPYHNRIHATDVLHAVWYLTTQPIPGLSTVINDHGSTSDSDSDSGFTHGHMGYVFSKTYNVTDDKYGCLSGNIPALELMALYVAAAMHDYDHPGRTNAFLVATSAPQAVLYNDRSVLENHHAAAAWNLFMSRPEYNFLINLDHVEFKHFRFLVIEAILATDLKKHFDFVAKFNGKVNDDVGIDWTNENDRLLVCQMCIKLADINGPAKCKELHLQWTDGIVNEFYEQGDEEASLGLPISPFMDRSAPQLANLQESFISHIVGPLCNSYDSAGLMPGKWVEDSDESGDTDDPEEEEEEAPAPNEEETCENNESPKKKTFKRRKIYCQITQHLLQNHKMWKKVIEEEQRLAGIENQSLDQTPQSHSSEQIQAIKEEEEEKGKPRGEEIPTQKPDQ

Structure (SMILES) | inhibition at 0.1 µM [1] | inhibition at 0.1 µM [2] | IC50 (PDE3; read-out: PDE3 inhibition IC50) | IC50 (PDE3; [3])
O=C1CCC(c2ccc(OCC(=O)N3CCC(NC[C@H](O)COc4ccccc4Br)CC3)c(Cl)c2)=NN1 [Compound 8d, 6-[4-(2-{4-[3-(2-bromo-phenoxy)-2-hydroxy-propylamino]-piperidin-1-yl}-2-oxo-ethoxy)-3-chloro-phenyl]-4,5-dihydro-2H-pyridazin-3-one] | > 25% | > 25% | < 1000 nM | < 100 nM
O=C1CCC(c2ccc(OCC(=O)N3CCC(NC[C@H](O)COc4ccccc4C(F)(F)F)CC3)c(Cl)c2)=NN1 [Compound 8g, 6-[3-chloro-4-(2-{4-[2-hydroxy-3-(2-trifluoromethyl-phenoxy)-propylamino]-piperidin-1-yl}-2-oxo-ethoxy)-phenyl]-4,5-dihydro-2H-pyridazin-3-one] | > 25% | > 25% | < 1000 nM | < 100 nM
Cc1ccc(OC[C@@H](O)CNC2CCN(C(=O)COc3ccc(C4=NNC(=O)CC4)cc3Cl)CC2)cc1 [Compound 8p, 6-(3-chloro-4-{2-[4-(2-hydroxy-3-p-tolyloxy-propylamino)-piperidin-1-yl]-2-oxo-ethoxy}-phenyl)-4,5-dihydro-2H-pyridazin-3-one] | – | > 25% | < 1000 nM | –
COCCc1ccc(OC[C@@H](O)CNCCOc2ccc(C3=NNC(=O)CC3)cc2Cl)cc1 [Compound 41, 6-[3-Chloro-4-(3-{(S)-2-hydroxy-propylamino]-ethoxy}-phenyl)-4,5-dihydro-2H-pyridazin-3-one] | > 25% | – | < 1000 nM | < 100 nM
COCCc1ccc(OC[C@@H](O)CNCCCCOc2ccc(C3=NNC(=O)CC3)cc2Cl)cc1 [Compound 44] | > 25% | – | < 1000 nM | –
CC(C)(CNC(=O)COc1ccc(C2=NNC(=O)CC2)cc1Cl)NCC(O)COc1cccc2[nH]c3ccccc3c12 (centres unmarked) [Compound 49, N-{2-[3-(9H-carbazol-4-yloxy)-2-hydroxy-propylamino]-2-methyl-propyl}-2-[2-chloro-4-(6-oxo-1,4,5,6-tetrahydro-pyridazin-3-yl)-phenoxy]-acetamide] | > 25% | > 25% | < 1000 nM | < 100 nM
O=C(COc1ccc(C2=NNC(=O)CC2)cc1Cl)NCCNCC(O)COc1cccc2[nH]c3ccccc3c12 (centres unmarked) [Compound 70] | – | – | < 1000 nM | < 100 nM
CC(C)(CNC(=O)COc1ccc(C2=NNC(=O)CC2)cc1Cl)NCC(O)COc1c(Br)ccc2[nH]c3ccccc3c12 (centres unmarked) [Compound 72a, N-{2-[3-(3-Bromo-9H-carbazol-4-yloxy)-2-hydroxy-propylamino]-2-methyl-propyl}-2-[2-chloro-4-(6-oxo-1,4,5,6-tetrahydro-pyridazin-3-yl)-phenoxy]-acetamide] | – | – | < 1000 nM | –
O=C1CCC(c2ccc(OCC(=O)N3CC(NCC(O)COc4cccc5[nH]c6ccccc6c45)C3)c(Cl)c2)=NN1 (centres unmarked) [Compound 75, 6-[4-(2-{3-[3-(9H-Carbazol-4-yloxy)-2-hydroxy-propylamino]-azetidin-1-yl}-2-oxo-ethoxy)-3-chloro-phenyl]-4,5-dihydro-2H-pyridazin-3-one] | – | – | < 1000 nM | –
